The nature of the data set: Pharmacokinetics in male CD-1 mice (IV and PO dosing). The data set is classed as in vivo. The conditions noted are these: mean plasma. Here is the method:
The pharmacokinetic profile of the Example 1 (compound 1a) was determined in male CD-1 mice by WuXi AppTec Co., Ltd., 1318 Wuzhong Avenue, Wuzhong District, Suzhou, China, 215104.

The values below come from patent publication US20250276968A1, “8- AND 6-SUBSTITUTED PYRIDOPYRIMIDINE DERIVATIVES AS KRAS INHIBITORS” (Beta Pharma, Inc., priority 2022, published 2025).

Where the note is “3 mg/kg IV”, `C=C(F)C(=O)N1CCN(c2nc(OC[C@@H]3CCCN3C)nc3cc(-c4cccc5cccc(Cl)c45)cnc23)C[C@@H]1CC#N` [Example 1, 2-((S)-4-(7-(8-Chloronaphthalen-1-yl)-2-(((S)-1-methylpyrrolidin-2-yl)methoxy)pyrido[3,2-d]pyrimidin-4-yl)-1-(2-fluoroacryloyl)piperazin-2-yl)acetonitrile] had an AUCExtra of 9.23%, an AUMCExtra of 35.2% and a Tlast of 8.00 h. For the setting “30 mg/kg PO”, this molecule displayed an AUCExtra of 17.1%, an AUMCExtra of 43.8% and a Tlast of 8.00 h.
